Here are results for six molecules from patent US9359398B2, “Compounds for immunoproteasome inhibition” (Onyx Therapeutics, Inc., priority 2010, dated 2016).

The target of assay [1] is immunoproteasome (L7) (Homo sapiens, UniProt P28062). Briefly: Enzyme kinetic assay of chymotrypsin-like (CT-L) activity, isolated 20S immunoproteasome prep. As to conditions: for EC50 ratio (B5/L7): 20S ratio: EC50 constitutive / EC50 immunoproteasome, greater than one = prefers immunoproteasome. It is filed as biochemical. The text has this: (§1) This can be done using enzyme kinetic assays such as those disclosed in U.S. application Ser. No. 09/569,748, Example 2 and Stein et al., Biochem. […] A ratio of less than one denotes the molecule inhibits the CT-L activity of the constitutive proteasome better than that of the immunoproteasome. Ratios greater than one signifies the molecule inhibits chymotrypsin-like activity of the immunoproteasome better than that of the constitutive proteasome.

For assay [2], the target named is constitutive proteasome (B5) (Homo sapiens, UniProt P28074). Briefly: Enzyme kinetic assay of chymotrypsin-like (CT-L) activity, isolated 20S constitutive proteasome prep. Type of assay: biochemical. Conditions: isolated 20S proteasome prep with greater than 90% constitutive proteasome subunits.
Excerpt: as §1

Turning to `CC(C)C[C@H](NC(=O)[C@H](Cc1ccccc1)NC(=O)[C@H](CC(C)C)NC(=O)[C@H](CCc1ccccc1)NC(=O)CN1CCOCC1)B(O)O`, the “EC50 ratio (B5/L7)” value in assay [1] turned out to be 1.10.
In the case of `C[C@H](NC(=O)CN1CCOCC1)C(=O)N[C@@H](Cc1ccc(O)cc1)C(=O)N[C@@H](Cc1ccccc1)B(O)O`, the “EC50 ratio (B5/L7)” value in assay [1] is given as 18.34.
Same read-out and setting: the value for `C[C@@H](NC(=O)CN1CCOCC1)C(=O)N[C@@H](Cc1c[nH]c2ccccc12)C(=O)N[C@@H](Cc1ccccc1)B(O)O` was 6.49.
As to `CC(C)C[C@H](NC(=O)[C@H](Cc1ccccc1)NC(=O)c1cnccn1)C(=O)[C@@]1(C)CO1`, the “EC50 for constitutive proteasome (B5)” value in assay [2] is “Inactive”. Further, in assay [1] (CT-L activity, isolated 20S proteasome prep with greater than 90% immunoproteasome subunits), the “EC50 for immunoproteasome (L7)” value is “Inactive”.
For the molecule `C[C@H](NC(=O)CN1CCOCC1)C(=O)N[C@@H](Cc1ccc(O)cc1)C(=O)N[C@@H](Cc1ccccc1)C(=O)[C@@]1(C)CO1`, the “EC50 ratio (B5/L7)” value in assay [1] stood at 17.04.
With `C[C@@H](NC(=O)CN1CCOCC1)C(=O)N[C@@H](Cc1c[nH]c2ccccc12)C(=O)N[C@@H](Cc1ccccc1)C(=O)[C@@]1(C)CO1`, the “EC50 for constitutive proteasome (B5)” value in assay [2] is “Inactive”. Also, the “EC50 ratio (B5/L7)” value in assay [1] is >>1.0.
